The conditions of the series: for electrical conductivity / viscosity / mass density: 101.33 kPa, Liquid; for electrical conductivity: Alternating current cell with electrodes; for viscosity: Capillary tube (Ostwald / Ubbelohde) method; for mass density: Pycnometric method; for Glass transition temperature: DTA.

SMILES strings stand for the structures. ± gives the expanded uncertainty stated by the source.

In the case of `CCn1cc[n+](C)c1.c1c[n-]cn1` [1-ethyl-3-methylimidazolium imidazolide], the Glass transition temperature is -60.01 ± 2 °C. For the same compound, where the note is “293.15 K”, the electrical conductivity is 0.27 ± 0.0086 S/m; the viscosity – broadly, the resistance of a fluid to flow – was found to be 191.8 ± 8.1 mPa·s; the mass density (in general, the mass of a sample divided by its volume) is recorded as 1113.5 ± 3.3 kg/m3. In addition, under “303.15 K”, the electrical conductivity turned out to be 0.487 ± 0.015 S/m, the viscosity stood at 87.9 ± 3.5 mPa·s and the mass density was 1106.7 ± 3.3 kg/m3. For the same compound, for the setting “313.15 K”, the electrical conductivity turned out to be 0.804 ± 0.026 S/m, the viscosity is 42.4 ± 1.6 mPa·s and the mass density is 1100.3 ± 3.3 kg/m3. Also, under “323.15 K”, the electrical conductivity came out at 1.24 ± 0.039 S/m, the viscosity is listed as 22.9 ± 0.9 mPa·s and the mass density is 1092.5 ± 3.3 kg/m3. In addition, under “333.15 K”, the electrical conductivity worked out at 1.69 ± 0.054 S/m, the viscosity amounted to 14.8 ± 0.5 mPa·s and the mass density is given as 1086.3 ± 3.3 kg/m3. Besides, for the setting “343.15 K”, the electrical conductivity was determined as 2.11 ± 0.067 S/m, the viscosity is recorded as 8.6 ± 0.3 mPa·s and the mass density came to 1079.7 ± 3.3 kg/m3.

Turning to `CCCCn1cc[n+](C)c1.c1c[n-]cn1` [1-butyl-3-methylimidazolium imidazolide], the Glass transition temperature is -56.01 ± 2 °C. Further, under “293.15 K”, the electrical conductivity was 0.0737 ± 0.0023 S/m, the viscosity is given as 533.3 ± 28 mPa·s and the mass density is listed as 1085.3 ± 3.2 kg/m3. Also, for the setting “303.15 K”, the electrical conductivity was found to be 0.15 ± 0.0048 S/m, the viscosity is on record as 272.6 ± 13 mPa·s and the mass density was determined as 1079.9 ± 3.2 kg/m3. For the setting “313.15 K”, the electrical conductivity was 0.284 ± 0.009 S/m, the viscosity is reported as 140 ± 6 mPa·s and the mass density was 1073.2 ± 3.2 kg/m3. Where the note is “323.15 K”, the electrical conductivity came to 0.481 ± 0.015 S/m, the viscosity was 76.8 ± 2.9 mPa·s and the mass density is on record as 1066.5 ± 3.2 kg/m3. Besides, under “333.15 K”, the electrical conductivity was 0.713 ± 0.023 S/m, the viscosity amounted to 47.5 ± 1.7 mPa·s and the mass density is listed as 1060.4 ± 3.2 kg/m3. Moreover, for the setting “343.15 K”, the electrical conductivity is 1.01 ± 0.032 S/m, the viscosity is reported as 34 ± 1.2 mPa·s and the mass density is listed as 1054.1 ± 3.2 kg/m3.

`C[n+]1ccn(CCCCn2cc[n+](C)c2)c1.c1c[n-]cn1.c1c[n-]cn1`: the Glass transition temperature was -54.34 ± 2 °C. Further, where the note is “293.15 K”, the electrical conductivity is 0.0266 ± 0.0008 S/m and the mass density is listed as 1177.4 ± 3.7 kg/m3. For the same compound, for the setting “303.15 K”, the electrical conductivity was determined as 0.0686 ± 0.0022 S/m, the viscosity is given as 3058 ± 220 mPa·s and the mass density is listed as 1172.8 ± 3.7 kg/m3. Besides, under “313.15 K”, the electrical conductivity amounted to 0.146 ± 0.0047 S/m, the viscosity came to 1003 ± 64 mPa·s and the mass density is given as 1166.9 ± 3.7 kg/m3. Under “323.15 K”, the electrical conductivity was 0.283 ± 0.009 S/m, the viscosity came to 427.1 ± 22 mPa·s and the mass density is 1158.7 ± 3.7 kg/m3. Under “333.15 K”, the electrical conductivity is 0.498 ± 0.016 S/m, the viscosity came to 206.3 ± 9.1 mPa·s and the mass density was 1154.3 ± 3.7 kg/m3. Where the note is “343.15 K”, the electrical conductivity was determined as 0.955 ± 0.03 S/m, the viscosity is on record as 111.5 ± 4.6 mPa·s and the mass density is given as 1148.9 ± 3.7 kg/m3.

As for `C[n+]1ccn(CCn2cc[n+](C)c2)c1.c1c[n-]cn1.c1c[n-]cn1`, the Glass transition temperature was -56.18 ± 2 °C. Further, under “293.15 K”, the electrical conductivity stood at 0.0111 ± 0.00035 S/m and the mass density is given as 1210.8 ± 3.9 kg/m3. Where the note is “303.15 K”, the electrical conductivity came to 0.0309 ± 0.00098 S/m, the viscosity is 6306 ± 530 mPa·s and the mass density turned out to be 1206 ± 3.9 kg/m3. Also, for the setting “313.15 K”, the electrical conductivity was found to be 0.0684 ± 0.0022 S/m, the viscosity was 2538 ± 180 mPa·s and the mass density came out at 1200 ± 3.9 kg/m3. Also, where the note is “323.15 K”, the electrical conductivity stood at 0.145 ± 0.0046 S/m, the viscosity is on record as 854.7 ± 52 mPa·s and the mass density is given as 1191.5 ± 3.9 kg/m3. Also, under “333.15 K”, the electrical conductivity came out at 0.254 ± 0.0081 S/m, the viscosity was 440.2 ± 22 mPa·s and the mass density was found to be 1185.7 ± 3.9 kg/m3. Besides, where the note is “343.15 K”, the electrical conductivity was 0.425 ± 0.013 S/m, the viscosity is 145.1 ± 8.2 mPa·s and the mass density was 1178.9 ± 3.9 kg/m3.

`C[n+]1ccn(CCCN)c1.c1c[n-]cn1` [1-(3-aminopropyl)-3-methylimidazolium imidazolide]: the Glass transition temperature is -55.02 ± 2 °C. Further, under “293.15 K”, the electrical conductivity turned out to be 0.0842 ± 0.0027 S/m, the viscosity was 220 ± 9.6 mPa·s and the mass density is 1148.4 ± 3.5 kg/m3. In addition, under “303.15 K”, the electrical conductivity was determined as 0.166 ± 0.0053 S/m, the viscosity came to 98.4 ± 4 mPa·s and the mass density was found to be 1143.1 ± 3.5 kg/m3. Moreover, under “313.15 K”, the electrical conductivity is 0.304 ± 0.0097 S/m, the viscosity is reported as 54.5 ± 2 mPa·s and the mass density was found to be 1137.5 ± 3.5 kg/m3. Further, under “323.15 K”, the electrical conductivity was 0.504 ± 0.016 S/m, the viscosity turned out to be 32.1 ± 1.2 mPa·s and the mass density was found to be 1131.8 ± 3.5 kg/m3. Besides, under “333.15 K”, the electrical conductivity was determined as 0.738 ± 0.024 S/m, the viscosity was found to be 19.9 ± 0.7 mPa·s and the mass density is given as 1126.3 ± 3.5 kg/m3. In addition, for the setting “343.15 K”, the electrical conductivity is 1.09 ± 0.035 S/m, the viscosity was found to be 13.7 ± 0.5 mPa·s and the mass density was found to be 1120.8 ± 3.5 kg/m3.

In the case of `C[n+]1ccn(CCO)c1.c1c[n-]cn1` [1-(2-hydroxyethyl)-3-methylimidazolium imidazolide], the Glass transition temperature is -54.01 ± 2 °C. For the same compound, under “293.15 K”, the electrical conductivity was 0.000168 ± 5e-06 S/m and the mass density is reported as 1301 ± 4.5 kg/m3. For the setting “303.15 K”, the electrical conductivity is 0.000636 ± 2e-05 S/m, the viscosity is on record as 8896 ± 790 mPa·s and the mass density is 1295.7 ± 4.5 kg/m3. Further, for the setting “313.15 K”, the electrical conductivity was found to be 0.00229 ± 7e-05 S/m, the viscosity turned out to be 3632 ± 280 mPa·s and the mass density came to 1289.8 ± 4.5 kg/m3. Moreover, under “323.15 K”, the electrical conductivity stood at 0.00646 ± 0.00021 S/m, the viscosity came out at 1255 ± 82 mPa·s and the mass density is listed as 1283.7 ± 4.5 kg/m3. Moreover, under “333.15 K”, the electrical conductivity came out at 0.0174 ± 0.00055 S/m, the viscosity was 615.2 ± 34 mPa·s and the mass density is recorded as 1278.1 ± 4.5 kg/m3. Where the note is “343.15 K”, the electrical conductivity came out at 0.0391 ± 0.0013 S/m, the viscosity was found to be 290.4 ± 14 mPa·s and the mass density amounted to 1272.3 ± 4.4 kg/m3.

For the origin of these results see the NIST ThermoML archive (doi:10.1016/j.jct.2014.01.028).
